Measured values published in ChEMBL document CHEMBL5154675, “Design, Synthesis, and Biological Evaluation of 1-(Indolizin-3-yl)ethan-1-ones as CBP Bromodomain Inhibitors for the Treatment of Prostate Cancer” (J Med Chem, 2022).

Key:
[1] = AUC (0 to infinity) in Sprague-Dawley rat at 25 mg/kg, po measured up to 24 hrs; type: ADME, organism-based; parameters: time < 24 hrs, dose 25 mg/kg, route po; settings: in vivo
[2] = target: T1, CREB-binding protein (Homo sapiens, UniProt Q92793); test: Inhibition of His6-tagged human CBP bromodomain (1081 to 1197 residues) expressed in Escherichia coli BL21 (DE3) incubated for 30 mins by HTRF assay
[3] = system: LNCaP C4-2B; test: Antiproliferative activity against human LNCaP C4-2B cells assessed as inhibition of cell growth by Celltiter-Glo assay; type: functional, cell-based
[4] = AUC (0 to infinity) in Sprague-Dawley rat at 5 mg/kg, iv administered as single dose measured up to 24 hrs; type: ADME, organism-based; parameters: time < 24 hrs, dose 5 mg/kg, route iv; settings: Sprague-Dawley, in vivo
[5] = Cmax in Sprague-Dawley rat at 25 mg/kg, po measured up to 24 hrs; type: ADME, organism-based; parameters: dose 25 mg/kg, time < 24 hrs, route po; settings: in vivo
[6] = Cmax in Sprague-Dawley rat at 5 mg/kg, iv administered as single dose measured up to 24 hrs; type: ADME, organism-based; parameters: time < 24 hrs, dose 5 mg/kg, route iv; settings: in vivo
[7] = Clearance in Sprague-Dawley rat at 5 mg/kg, iv administered as single dose measured up to 24 hrs; type: ADME, organism-based; settings: Sprague-Dawley, in vivo
[8] = Half life in Sprague-Dawley rat at 25 mg/kg, po measured up to 24 hrs; type: ADME, organism-based; settings: in vivo
[9] = Half life in Sprague-Dawley rat at 5 mg/kg, iv administered as single dose measured up to 24 hrs; type: ADME, organism-based; settings: Sprague-Dawley, in vivo
[10] = Oral bioavailability in Sprague-Dawley rat at 25 mg/kg measured up to 24 hrs; type: ADME, organism-based; settings: in vivo
[11] = system: LNCaP; test: Antiproliferative activity against human LNCaP cells assessed as cell growth inhibition by Celltiter-Glo assay; type: functional, cell-based
[12] = system: CWR22R; test: Antiproliferative activity against human 22Rv1 cells assessed as cell growth inhibition by Celltiter-Glo assay; type: functional, cell-based
[13] = target: T1, CREB-binding protein; settings: dose 200.0 µM, time 30.0 min
[14] = target: Histone acetyltransferase p300 (Homo sapiens) (UniProt Q09472); settings: dose 200.0 µM, time 30.0 min
[15] = target: PH-interacting protein (Homo sapiens) (UniProt Q8WWQ0); settings: dose 200.0 µM, time 30.0 min
[16] = target: Chromatin remodeling regulator CECR2 (Homo sapiens) (UniProt Q9BXF3); settings: dose 200.0 µM, time 30.0 min
[17] = target: Bromodomain adjacent to zinc finger domain protein 2B (Homo sapiens) (UniProt Q9UIF8); settings: dose 200.0 µM, time 30.0 min
[18] = target: Histone acetyltransferase KAT2B (Homo sapiens) (UniProt Q92831); settings: dose 200.0 µM, time 30.0 min
Histone acetyltransferase KAT2B (Homo sapiens), sequence (Q92831 whole entry, looked up): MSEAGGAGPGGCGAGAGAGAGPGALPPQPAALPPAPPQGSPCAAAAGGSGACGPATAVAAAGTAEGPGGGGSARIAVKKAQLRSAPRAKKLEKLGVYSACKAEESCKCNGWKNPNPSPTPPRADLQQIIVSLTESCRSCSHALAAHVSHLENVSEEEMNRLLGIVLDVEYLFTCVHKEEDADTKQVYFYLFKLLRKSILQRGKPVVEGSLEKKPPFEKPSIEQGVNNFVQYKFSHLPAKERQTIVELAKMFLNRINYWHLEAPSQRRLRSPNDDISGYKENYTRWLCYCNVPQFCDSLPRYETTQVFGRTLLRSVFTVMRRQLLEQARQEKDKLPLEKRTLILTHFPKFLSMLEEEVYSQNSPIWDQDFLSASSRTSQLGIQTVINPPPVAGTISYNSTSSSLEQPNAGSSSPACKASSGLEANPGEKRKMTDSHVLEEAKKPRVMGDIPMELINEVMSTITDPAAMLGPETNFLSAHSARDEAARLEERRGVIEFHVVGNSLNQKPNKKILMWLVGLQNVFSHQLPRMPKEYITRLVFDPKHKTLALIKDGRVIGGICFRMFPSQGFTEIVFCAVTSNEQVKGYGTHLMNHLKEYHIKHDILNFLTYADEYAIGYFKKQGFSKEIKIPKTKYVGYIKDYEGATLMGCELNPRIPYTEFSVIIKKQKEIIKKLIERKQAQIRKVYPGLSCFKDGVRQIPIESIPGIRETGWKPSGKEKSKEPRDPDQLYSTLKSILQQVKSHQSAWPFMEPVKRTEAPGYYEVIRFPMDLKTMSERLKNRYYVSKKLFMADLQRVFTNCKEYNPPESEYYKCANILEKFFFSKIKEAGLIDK

[19] = target: T2, Bromodomain-containing protein 4 (Homo sapiens, UniProt O60885); settings: dose 200.0 µM, time 30.0 min
[20] = target: T2, Bromodomain-containing protein 4; settings: dose 200.0 µM, time 30.0 min; remark: listed apart in the source
[21] = target: T3, Bromodomain-containing protein 3 (Homo sapiens, UniProt Q15059); settings: dose 200.0 µM, time 30.0 min
T3 sequence (Q15059 2-726 limits assumed): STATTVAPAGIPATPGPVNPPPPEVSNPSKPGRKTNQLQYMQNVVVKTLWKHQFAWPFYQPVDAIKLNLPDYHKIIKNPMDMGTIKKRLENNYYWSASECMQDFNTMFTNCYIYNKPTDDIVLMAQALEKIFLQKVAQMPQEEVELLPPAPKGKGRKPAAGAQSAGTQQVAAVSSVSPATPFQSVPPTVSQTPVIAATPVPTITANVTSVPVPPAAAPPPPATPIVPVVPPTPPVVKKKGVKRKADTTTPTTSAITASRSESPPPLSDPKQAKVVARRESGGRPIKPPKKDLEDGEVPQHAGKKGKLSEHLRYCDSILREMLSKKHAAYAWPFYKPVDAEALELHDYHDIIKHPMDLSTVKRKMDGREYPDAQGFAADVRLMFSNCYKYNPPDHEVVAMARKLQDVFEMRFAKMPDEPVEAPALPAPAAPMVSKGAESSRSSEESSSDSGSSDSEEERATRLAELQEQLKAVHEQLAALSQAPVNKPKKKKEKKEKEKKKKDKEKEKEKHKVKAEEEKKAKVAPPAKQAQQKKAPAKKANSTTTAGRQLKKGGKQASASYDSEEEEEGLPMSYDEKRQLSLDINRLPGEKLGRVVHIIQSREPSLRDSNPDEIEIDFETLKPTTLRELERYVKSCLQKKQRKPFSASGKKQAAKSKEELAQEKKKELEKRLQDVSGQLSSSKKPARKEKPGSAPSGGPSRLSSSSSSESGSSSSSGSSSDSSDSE

[22] = target: T3, Bromodomain-containing protein 3; settings: dose 200.0 µM, time 30.0 min; remark: listed apart in the source
[23] = target: T4, Bromodomain-containing protein 2 (Homo sapiens, UniProt P25440); settings: dose 200.0 µM, time 30.0 min
Target sequence in this assay (P25440 whole entry, looked up): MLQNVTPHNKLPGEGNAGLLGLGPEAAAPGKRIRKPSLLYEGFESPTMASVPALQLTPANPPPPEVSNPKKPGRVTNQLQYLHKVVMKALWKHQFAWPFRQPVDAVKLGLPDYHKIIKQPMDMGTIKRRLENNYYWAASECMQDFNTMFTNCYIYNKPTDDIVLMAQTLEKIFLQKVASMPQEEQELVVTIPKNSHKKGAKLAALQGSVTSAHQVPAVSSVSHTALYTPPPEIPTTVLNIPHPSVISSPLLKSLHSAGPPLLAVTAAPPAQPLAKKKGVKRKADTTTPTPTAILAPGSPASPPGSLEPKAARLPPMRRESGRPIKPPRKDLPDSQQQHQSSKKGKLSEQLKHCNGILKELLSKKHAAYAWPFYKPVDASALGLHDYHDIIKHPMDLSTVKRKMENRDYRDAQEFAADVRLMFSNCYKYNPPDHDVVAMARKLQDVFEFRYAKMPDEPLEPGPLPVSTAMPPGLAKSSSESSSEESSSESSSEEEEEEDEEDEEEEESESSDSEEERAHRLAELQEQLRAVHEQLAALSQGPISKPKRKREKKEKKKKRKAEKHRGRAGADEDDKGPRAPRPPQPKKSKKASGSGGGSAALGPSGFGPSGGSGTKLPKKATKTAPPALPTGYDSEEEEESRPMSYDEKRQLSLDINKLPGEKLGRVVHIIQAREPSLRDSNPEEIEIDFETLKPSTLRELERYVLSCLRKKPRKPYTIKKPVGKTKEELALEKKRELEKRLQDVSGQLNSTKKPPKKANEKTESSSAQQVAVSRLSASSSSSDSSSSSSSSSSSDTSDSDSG

[24] = target: T4, Bromodomain-containing protein 2; settings: dose 200.0 µM, time 30.0 min; remark: listed apart in the source
Target sequence in this assay (P25440 whole entry, looked up): as above

[25] = target: T5, Bromodomain testis-specific protein (Homo sapiens, UniProt Q58F21); settings: dose 200.0 µM, time 30.0 min
[26] = target: T5, Bromodomain testis-specific protein; settings: dose 200.0 µM, time 30.0 min; remark: listed apart in the source
[27] = target: SWI/SNF-related matrix-associated actin-dependent regulator of chromatin subfamily A member 2 (Homo sapiens) (UniProt P51531); settings: dose 200.0 µM, time 30.0 min
SWI/SNF-related matrix-associated actin-dependent regulator of chromatin subfamily A member 2 (Homo sapiens), sequence (P51531 whole entry): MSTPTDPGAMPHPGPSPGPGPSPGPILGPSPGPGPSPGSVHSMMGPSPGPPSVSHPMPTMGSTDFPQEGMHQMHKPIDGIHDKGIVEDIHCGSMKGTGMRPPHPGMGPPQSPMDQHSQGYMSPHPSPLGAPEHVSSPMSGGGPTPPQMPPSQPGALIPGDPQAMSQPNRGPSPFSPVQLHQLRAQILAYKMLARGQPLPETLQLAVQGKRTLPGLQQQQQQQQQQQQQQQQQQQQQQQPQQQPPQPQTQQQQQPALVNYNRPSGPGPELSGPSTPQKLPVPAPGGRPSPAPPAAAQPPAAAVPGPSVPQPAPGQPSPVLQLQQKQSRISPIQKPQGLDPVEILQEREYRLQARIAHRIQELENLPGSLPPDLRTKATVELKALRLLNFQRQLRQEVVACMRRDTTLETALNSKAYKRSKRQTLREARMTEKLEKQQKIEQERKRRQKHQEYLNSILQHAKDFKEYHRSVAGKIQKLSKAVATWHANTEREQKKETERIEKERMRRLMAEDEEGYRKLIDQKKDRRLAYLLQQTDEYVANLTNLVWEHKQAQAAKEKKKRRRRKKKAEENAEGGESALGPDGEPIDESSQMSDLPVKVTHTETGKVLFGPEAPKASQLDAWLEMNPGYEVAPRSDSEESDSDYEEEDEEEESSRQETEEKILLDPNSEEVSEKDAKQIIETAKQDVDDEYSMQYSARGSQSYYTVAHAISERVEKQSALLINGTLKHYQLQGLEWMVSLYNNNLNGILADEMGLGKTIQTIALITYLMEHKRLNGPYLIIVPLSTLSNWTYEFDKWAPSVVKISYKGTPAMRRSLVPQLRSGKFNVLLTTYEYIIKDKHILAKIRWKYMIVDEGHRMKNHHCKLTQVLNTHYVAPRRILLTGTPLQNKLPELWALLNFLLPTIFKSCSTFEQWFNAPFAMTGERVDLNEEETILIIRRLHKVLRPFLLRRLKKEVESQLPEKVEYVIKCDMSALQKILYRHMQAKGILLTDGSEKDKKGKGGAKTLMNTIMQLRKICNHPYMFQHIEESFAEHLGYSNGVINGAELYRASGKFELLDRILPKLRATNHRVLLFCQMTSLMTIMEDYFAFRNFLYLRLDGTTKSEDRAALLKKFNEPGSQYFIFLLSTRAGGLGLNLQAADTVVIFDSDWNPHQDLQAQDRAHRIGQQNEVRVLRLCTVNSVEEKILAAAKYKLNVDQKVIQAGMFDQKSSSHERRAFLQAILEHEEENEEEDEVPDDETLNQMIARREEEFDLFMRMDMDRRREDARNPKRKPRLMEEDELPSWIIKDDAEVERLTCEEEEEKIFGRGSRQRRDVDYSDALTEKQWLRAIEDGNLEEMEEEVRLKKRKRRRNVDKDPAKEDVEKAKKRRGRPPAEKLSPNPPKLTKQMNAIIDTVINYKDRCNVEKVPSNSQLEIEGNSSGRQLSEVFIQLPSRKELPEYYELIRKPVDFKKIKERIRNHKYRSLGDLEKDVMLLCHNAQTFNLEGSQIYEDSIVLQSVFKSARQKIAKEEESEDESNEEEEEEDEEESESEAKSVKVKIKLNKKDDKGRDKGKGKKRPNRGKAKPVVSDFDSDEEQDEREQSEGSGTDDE

[28] = target: T6, Bromodomain-containing protein 9 (Homo sapiens) (UniProt Q9H8M2); settings: dose 200.0 µM, time 30.0 min
T6 sequence (whole entry): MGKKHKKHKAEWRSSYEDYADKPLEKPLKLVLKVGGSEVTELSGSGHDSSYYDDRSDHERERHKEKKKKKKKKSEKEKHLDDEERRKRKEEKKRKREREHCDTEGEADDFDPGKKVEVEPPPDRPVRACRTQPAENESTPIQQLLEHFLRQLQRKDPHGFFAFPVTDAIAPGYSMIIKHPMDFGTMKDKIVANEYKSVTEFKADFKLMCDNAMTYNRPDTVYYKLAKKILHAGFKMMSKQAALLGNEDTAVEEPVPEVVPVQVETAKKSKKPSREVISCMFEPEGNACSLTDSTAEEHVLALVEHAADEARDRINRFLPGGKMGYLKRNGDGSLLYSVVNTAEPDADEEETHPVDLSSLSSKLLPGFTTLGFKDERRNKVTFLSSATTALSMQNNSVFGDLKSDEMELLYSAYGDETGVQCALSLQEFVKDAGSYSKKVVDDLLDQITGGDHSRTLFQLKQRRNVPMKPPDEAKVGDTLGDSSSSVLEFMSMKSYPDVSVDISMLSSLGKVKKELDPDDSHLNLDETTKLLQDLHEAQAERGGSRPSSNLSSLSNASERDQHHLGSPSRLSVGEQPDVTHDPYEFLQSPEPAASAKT

[29] = target: T7, Bromodomain-containing protein 9 (Homo sapiens, UniProt Q9H8M2); test: Binding affinity to His6-tagged human BRD9 bromodomain (14 to 134 residues) expressed in Escherichia coli BL21 (DE3) assessed as dissociation constant by ITC analysis
T7 sequence (Q9H8M2 whole entry): T6 sequence (whole entry)

[30] = target: T4, Bromodomain-containing protein 2; test: Binding affinity to His6-tagged human BRD2 bromodomain-1 (77 to 194 residues) expressed in Escherichia coli BL21 (DE3) assessed as dissociation constant by ITC analysis
Target sequence in this assay (P25440 whole entry): as the sequence (P25440 whole entry, looked up) above

[31] = target: T2, Bromodomain-containing protein 4; test: Binding affinity to His6-tagged human BRD4 bromodomain-1 (44 to 168 residues) expressed in Escherichia coli BL21 (DE3) assessed as dissociation constant by ITC analysis
[32] = target: T5, Bromodomain testis-specific protein; test: Binding affinity to His6-tagged human BRDT bromodomain-1 (21 to 137 residues) expressed in Escherichia coli BL21 (DE3) assessed as dissociation constant by ITC analysis

| IC50 [3] [nM] | IC50 [11] [nM] | ΔTm [13] [°C] | ΔTm [14] [°C] | ΔTm [15] [°C] | ΔTm [16] [°C] | ΔTm [17] [°C] | ΔTm [18] [°C] | ΔTm [19] [°C] | ΔTm [20] [°C] | ΔTm [21] [°C] | ΔTm [22] [°C] | ΔTm [23] [°C] | ΔTm [24] [°C] | ΔTm [25] [°C] | ΔTm [26] [°C] | ΔTm [27] [°C] | ΔTm [28] [°C] | SMILES | IC50 [12] [nM] | other results |
| --- | --- | --- | --- | --- | --- | --- | --- | --- | --- | --- | --- | --- | --- | --- | --- | --- | --- | --- | --- | --- |
| 2970 | 440 | 14 | 14.5 | -0.3 | -0.2 | -0.2 | -0.3 | -0.6 | 0 | 0.5 | 0 | -0.8 | 1.3 | 1.5 | 0 | -0.3 | 5.3 | CC(=O)c1cc(C(=O)Nc2cc(C(C)O)cc(-c3cnn(C4CC4)c3)c2F)c2cc(N)ccn12 (stereo unspecified) | 2930 | AUC(0-inf) [1]: 29.4 ng·h/mL; IC50 [2]: 1.48 nM; AUC(0-inf) [4]: 796 ng·h/mL; Cmax [5]: 46.8 ng/mL; Cmax [6]: 2680 ng/mL; clearance [7]: 107 mL/min/kg; half-life [8]: 1.97 h; half-life [9]: 1.32 h; bioavailability [10]: 0.68% |
| 1650 | 60 | 17.5 | 17.5 | 0 | 0 | -0.5 | -0.5 | 6.3 | 1.3 | 5.5 | 2 | 3.8 | 2.3 | 2.5 | 0.5 | 0 | 4.3 | CO[C@H]1CC[C@H](n2c([C@@H]3CCCC(=O)N3c3ccc(F)c(F)c3)nc3cc(-c4c(C)noc4C)ccc32)CC1 [INOBRODIB] | 420 | Kd [29]: 2610 nM; Kd [30]: 390 nM; Kd [31]: 360 nM; Kd [32]: 1120 nM |
